Experimental data as given in US20130295143A1, “ELECTROPROCESSING OF ACTIVE PHARMACEUTICAL INGREDIENTS” (Massachusetts Institute of Technology, priority 2012, published 2013).
Entries after “also recorded” stand apart in the source; their conditions may differ.

Legend:
Type in all cases: physicochemical
[1] = USP dissolution test of compressed electrospun tablets vs compressed powder tablets; conditions: USP apparatus II, 50 rpm, 37° C., 900 mL; 0.1 N HCl for ABZ, 0.1 M Phosphate buffer for FAM; 150 mg 9 mm tablets, 1:2 API:PVP
Procedure: Powder tablets were prepared by weighing out 50 mg API powder and 100 mg PVP powder, mixing for 1 min, and pressing into 9 mm tablets using the same press with the same insertion depth. The electrospun tablets were compared to the compressed powder tablets for analysis. […] Dissolution was performed using a Varian VK 7025 dissolution bath (Agilent, Santa Clara, Calif.) and a Cary 50 Bio UV spectrophotometer (Agilent, Santa Clara, Calif.). For ABZ the standard USP methods were used with 900 mL 0.1 N HCl media, apparatus II, 50 rpm paddle speed and a temperature of 37° C. For FAM standard USP methods were used with 900 mL 0.1 M Phosphate buffer media, apparatus II, 50 rpm paddle speed, and a temperature of 37° C. Measurements were made every minute for 90 minutes by probes inserted in the bath and connected to the spectrophotometer by fiber optic cables.

[2] = Drug loading in electrospun fibers by UV-vis spectroscopy; conditions: 1:2 API:PVP, nominal API loading 33 wt %; average of three measurements
Procedure: In order to determine the actual drug loading in the electrospun fibers, samples were analyzed with a Perkin-Elmer (Waltham, Mass.) double-beam Lambda25 UV-vis spectrophotometer. A standard curve was prepared for ABZ in methanol for concentrations from 0.005 mg/mL to 0.05 mg/mL at an absorbance of 295 nm and for FAM in methanol for concentrations from 0.002 mg/mL to 0.035 mg/mL at an absorbance of 286 nm. […] A known mass of electrospun mat was dissolved in a known volume of methanol and diluted such that the expected concentration of API fell within the concentration ranges covered by the standard curves. From the resulting measured concentration, the mass of API in the original mat sample, and thus the weight percent API in the electrospun mat was calculated. Three measurements were made per API and were averaged to give the reported value.

[3] = Polymorphism of API before and after electrospinning (XRD, DSC); conditions: free-surface electrospinning from PVP/ethanol suspension
Procedure: Scanning electron microscopy (SEM) was used to analyze the morphology of the fibers. A Quorum Technologies SC7640 high resolution gold/palladium sputter coater was used to coat the samples, and a JEOL 6060 SEM at 5 kV operating voltage was used to obtain images. Both X-ray diffraction (XRD) and differential scanning calorimetry (DSC) were used to confirm the presence of crystals and analyze the polymorph present in the electrospun fibers. XRD was performed on a PANalytical X′Pert Pro with a reflection-transmission spinner PW 3064/60 sample stage and a Cu X-ray source with a 1.54 Å wavelength. DSC was performed on a TA DSC Q2000 instrument using a 2-6 mg sample in an aluminum sample pan. The materials were heated at 10° C./min to 250° C. and 200° C. for ABZ and FAM, respectively.

Row | Structure (SMILES) | dissolution amount, electrospun formulation relative to compressed powder tablet [1] | average loading of API in the electrospun fibers [2] [wt %] | polymorphism of the API through the electrospinning process [3]
1 | CCCSc1ccc2nc(NC(=O)OC)[nH]c2c1 [ABZ, albendazole] | more than twice the dissolution amount | 31 | retained their polymorphism throughout processing; also recorded: not significantly affected
2 | NC(N)=Nc1nc(CSCCC(N)=NS(N)(=O)=O)cs1 [FAM, famotidine] | more than twice the dissolution amount | 26 | retained their polymorphism throughout processing
